# Where “and” joins values, the source holds several entries; their conditions need not be identical. Identical values can stand only once.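 Interpolation was linear, between the two tested concentrations surrounding the appropriate level; five concentrations were tested over 48 hours in 96-well plates. Abbreviation: GI50, concentration required for 50% inhibition of growth. TGI: concentration producing complete growth inhibition.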
# Experiments:
# Test in all cases: NCI tumour cell line growth inhibition, 48 h
# COLO 205 colon = test system: COLO 205 colon
# M14 melanoma = test system: M14 melanoma
# NCI-H226 lung = test system: NCI-H226 lung
# NCI-H522 lung = test system: NCI-H522 lung
# NCI/ADR-RES ovarian = test system: NCI/ADR-RES ovarian
# OVCAR-5 ovarian = test system: OVCAR-5 ovarian
# SF-295 CNS = test system: SF-295 CNS
# SK-MEL-28 melanoma = test system: SK-MEL-28 melanoma
# SN12C renal = test system: SN12C renal
# SR leukemia = test system: SR leukemia
SMILES,GI50 (COLO 205 colon) [nM],TGI (COLO 205 colon),GI50 (M14 melanoma) [nM],TGI (M14 melanoma) [µM],GI50 (NCI-H226 lung) [nM],TGI (NCI-H226 lung),GI50 (NCI-H522 lung) [nM],TGI (NCI-H522 lung) [µM],GI50 (NCI/ADR-RES ovarian) [nM],TGI (NCI/ADR-RES ovarian) [µM],GI50 (OVCAR-5 ovarian) [nM],TGI (OVCAR-5 ovarian) [µM],GI50 (SF-295 CNS) [nM],TGI (SF-295 CNS),GI50 (SK-MEL-28 melanoma) [µM],TGI (SK-MEL-28 melanoma),GI50 (SN12C renal) [nM],TGI (SN12C renal),TGI (SR leukemia) [µM],GI50 (SR leukemia) [µM]
COc1cc2ncn(-c3cc(OCc4ccccc4C(F)(F)F)c(C(N)=O)s3)c2cc1OC,117,> 25 µM,141,> 25,1010,> 25 µM,168,3.67,150,> 25,178,> 25,131,6.9 µM,1.5,> 25 µM,2670,> 25 µM,,
C[N+](C)(C)CC1CCC(C[N+](C)(C)C)C1=NO (centres undefined),,> 100 µM,,> 100,,> 100 µM,,> 100,,,,,,> 100 µM,,> 100 µM,,> 100 µM,> 100,
COc1cc2c(c(OC)c1OC)-c1cc(I)c(O)cc1[C@@H](NC(C)=O)CC2,38.5,0.155 µM,31.1,0.0969,299,99.2 µM,48.4,> 100,681,> 20.3,237,> 100,37,> 100 µM,0.999,> 100 µM,106,> 100 µM,,
COC(=O)Cc1cc(=O)n2c3ccccc3n(C)c2c1C#N,,> 100 µM,,> 100,,> 100 µM,,,,,,> 100,,> 100 µM,,> 100 µM,,> 100 µM,> 100,
COC(=O)[C@@]12OC[C@]34[C@H]([C@@H](O)[C@@H]1O)[C@@]1(C)CC(=O)C(O)=C(C)[C@@H]1C[C@H]3OC(=O)[C@H](OC(=O)/C=C(\C)C(C)C)[C@@H]24,,0.0167 µM and 0.0586 µM,,0.0109,,0.00771 µM and 0.0236 µM,,0.00723,,,,,,0.0345 µM and 0.0582 µM,,0.0142 µM and < 0.0339 µM and 0.0317 µM,,0.0582 µM and 0.0317 µM and 0.102 µM,0.0369,
CC(C)c1ccc(O)c(Cc2cc(C(C)C)cc(Cc3cc(C(C)C)ccc3O)c2O)c1,,12.3 µM,,3.23,,2.93 µM,,2.92,,,,3.13,,3.3 µM,,3.2 µM,,3.16 µM,4.45,
FC(F)(F)c1ccccc1C1SCc2nc3ccccc3n21 (centres undefined),,> 100 µM,,,,> 100 µM,,> 100,,,,> 100,,> 100 µM,,> 100 µM,,> 100 µM,> 100,
COc1cc(N=Nc2cc(Cc3ccc(N(C)C)cc3)c(N)cc2N(C)C)c2ncccc2c1,176,1.21 µM,340,1.58,754,8.28 µM,398,2.23,338,1.57,801,2.66,618,2 µM,0.745,2.2 µM,649,2.32 µM,,
CCn1cc(C(=O)O)c(=O)c2cc(F)c(N3CCN(S(=O)(=O)c4ccc(Cl)cc4Cl)CC3)cc21,2440,5.1 µM,3240,10.8,2600,7.88 µM,1810,3.73,3280,28,3430,> 100,,,3.22,13.7 µM,2770,> 100 µM,,
COc1cc(-c2nc(-c3ccccc3)c(-c3ccccc3)[nH]2)cc(OC)c1O,19600,36.4 µM,,,21200,50 µM,17600,33.8,24600,73.8,15400,31.7,17100,45.5 µM,14.9,31.1 µM,17600,37.5 µM,51.7,13.6
CN1C2C=CC(=O)C1C1C(=O)N(c3ccccc3)C(=O)C12 (centres undefined),7810,22 µM,9800,24.6,17600,57.3 µM,14300,79.9,17000,95.3,5950,21.6,3060,36.7 µM,3.62,16.7 µM,5090,31.9 µM,,
CC(=O)CCC1(c2ccccc2)OC(=O)C(C#N)=C1c1ccccc1 (centres undefined),,> 100 µM,,> 100,,,,4.53,,,,> 100,,> 100 µM,,> 100 µM,,> 100 µM,,
CC(C)(O)C1COC2=C1C(=O)c1ccccc1C2=O (centres undefined),,> 100 µM,,> 100,,> 100 µM,,> 100,,62.1,,54,,> 100 µM,,46 µM,,77.8 µM,,
N=C(N)c1ccc2oc3ccc(C(=N)N)cc3c(=O)c2c1,,> 100 µM,,> 100,,> 100 µM,,> 100,,> 100,,> 100,,> 100 µM,,> 100 µM,,> 100 µM,,
Cc1cc(N(CCC#N)CCC#N)ccc1/C=C(\NC(=O)/C=C/c1ccccc1)C(=O)Nc1ccccc1Cl,,> 100 µM,,> 100,,> 100 µM,,,,,,> 100,,> 100 µM,,> 100 µM,,> 100 µM,,
Cc1c(Cl)ccc2c1NC(=O)C2(O)CC(=O)c1ccc(Cl)cc1 (centres undefined),,> 64.9 µM,,> 100,,> 100 µM,,> 100,,,,> 100,,> 58.3 µM,,> 100 µM,,> 54.9 µM,> 57.1,
CC(=O)c1cc2c(N)c(C(=O)Nc3cccc4ccccc34)sc2nc1C,1120,3.2 µM,745,3.21,21600,> 50 µM,1200,> 50,,,2600,> 50,922,3.59 µM,4.07,> 50 µM,3440,> 50 µM,> 50,1.21
Cc1cc(Cl)ccc1N=C1NC(=O)C(CC(=O)Nc2cccc(Cl)c2)S1 (centres undefined),,> 100 µM,,> 100,,> 100 µM,,> 100,,,,87.4,,> 100 µM,,> 100 µM,,> 100 µM,,

# Source: PubChem BioAssay (NCI)
